Molecules are shown by their SMILES.

Series [1] has as its system SCC-61, G48, MD3-MB-231 and PC3 cancer cell lines. The series is described as follows: MTT assay, potency versus ascorbate across patient-derived cancer cell lines. As to conditions: Example 13; SCC-61, PC3, and MD3-MB-231 cells. In kind it is cell-based, human. On the procedure:
The cells were seeded at density 5×10^3 cells/well. After 24 h pre-incubation period, cells were treated with 0.01 mM to 2.0 mM of freshly prepared KS1 and KS2 along with ascorbate (n=3) for 48 h. 0.2% of DMSO served as vehicle control. After 48 h, the solutions were removed from all plates and MTT assays performed following the published protocols. IC50 values are presented as mean±SD from at least three independent experiments.
There is growing evidence for a therapeutic role of ascorbate against several cancers (Creagan et al., Failure of High-Dose Vitamin C (Ascorbic Acid) Therapy to Benefit Patients with Advanced Cancer. New England Journal of Medicine 1979, 301 (13), 687-690; Chen et al., Pharmacologic ascorbic acid concentrations selectively kill cancer cells: action as a pro-drug to deliver hydrogen peroxide to tissues. Proceedings of the National Academy of Sciences of the United States of America 2005, 102 (38), 13604-13609; Prasad et al., High Doses of Multiple Antioxidant Vitamins: Essential Ingredients in Improving the Efficacy of Standard Cancer Therapy. Journal of the American College of Nutrition 1999, 18 (1), 13-25). […]

Series [2] has as its system normal organs. The series is described as follows: Toxicity observation in blocking studies, KS1 15 mg/kg. In kind it is in vivo. As to conditions: 15 mg/kg injected. As for the experimental part: Athymic nude mice (Taconic Farms) were housed in a pathogen-free facility of the Animal Research Program at Wake Forest School of Medicine under a 12:12-h light/dark cycle and fed ad libitum. All animal experiments were conducted under IACUC approved protocols in compliance with the guidelines for the care and use of research animals established by Wake Forest Medical School Animal Studies Committee. PC3 cells (1×10^5 cells suspended in 10 μL matrigel) were implanted in the left flank of nude mice (25-30 g) as described previously. […] Samples of tumor, blood, brain, heart, lung, liver, spleen, pancreas, kidney, muscle and bone were harvested, weighed, and gamma counted with a standard dilution of the injectate (Chu et al., Development of a PET Radiotracer for Noninvasive Imaging of the Reactive Oxygen Species, Superoxide, in vivo. Organic & biomolecular chemistry. 2014; 12:4421-31; Sai et al., Radiolabeling and initial biological evaluation of [(18)F]KBM-1 for imaging RAR-α receptors in neuroblastoma. Bioorganic & medicinal chemistry letters. 2017; 27:1425-7; Kumar et al., Radiosynthesis and in Vivo Evaluation of [11C]MPC-6827, the First Brain Penetrant Microtubule PET Ligand. […] The percentage of the injected dose per gram of tissue (% ID/g) was calculated.

The test system of series [3] is rSCC-61 tumors. The series is described as follows: Post-PET biodistribution, rSCC-61 tumor-bearing mice. In kind it is in vivo. As for the experimental part: Subsequently, post-PET biodistribution was performed in the same SCC-61 or rSCC-61 tumor-bearing mice injected with [^18F]KS1 (FIG. 16). […] High kidney and liver uptake were common with [^18F]radiotracer's distribution at 30 min post-injection.

The nature of series [4]: Ex vivo biodistribution in normal ICR mice. As to conditions: for blood uptake / kidney uptake / liver uptake: in %ID/g (unit assumed).
For series [5], the system named is PC3 tumors. Briefly: Standard biodistribution in PC3 tumor-bearing mice. In kind it is in vivo. As for the experimental part:
Athymic nude mice (Taconic Farms) were housed in a pathogen-free facility of the Animal Research Program at Wake Forest School of Medicine under a 12:12-h light/dark cycle and fed ad libitum. All animal experiments were conducted under IACUC approved protocols in compliance with the guidelines for the care and use of research animals established by Wake Forest Medical School Animal Studies Committee. PC3 cells (1×10^5 cells suspended in 10 μL matrigel) were implanted in the left flank of nude mice (25-30 g) as described previously. Mice bearing subcutaneous human PCa PC3 tumors were separated into two groups for baseline and blockade studies (n=3/group) and underwent microPET imaging under ˜1% isoflurane-oxygen anesthesia (Reuter et al., Oxidative stress, inflammation, and cancer: How are they linked? Free radical biology & medicine. 2010; 49:1603-16. doi:10.1016/j.freeradbiomed; Sosa et al., Oxidative stress and cancer: An overview. Ageing Research Reviews. 2013; 12:376-90; Singh et al., Silibinin suppresses in vivo growth of human prostate carcinoma PC-3 tumor xenograft. Carcinogenesis. 2007; 28:2567-74). Mice were intravenously injected with ˜100±10 μCi of [^18F]KS1 and 45 min later were scanned for 20 min using a TriFoil microPET scanner. KS1 (15 mg/kg) was used as a blocking agent and was injected 45 min before the radiotracer injection. Standard biodistribution studies were conducted in mice bearing PCa tumors to confirm in vivo binding of [^18F]KS1. Mice were intravenously injected with [^18F]KS1 (˜100 μCi), and euthanized after 30 min and 60 min of tracer injections (3 mice/time point). Samples of tumor, blood, brain, heart, lung, liver, spleen, pancreas, kidney, muscle and bone were harvested, weighed, and gamma counted with a standard dilution of the injectate (Chu et al., Development of a PET Radiotracer for Noninvasive Imaging of the Reactive Oxygen Species, Superoxide, in vivo. Organic & biomolecular chemistry. 2014; 12:4421-31; Sai et al., Radiolabeling and initial biological evaluation of [(18)F]KBM-1 for imaging RAR-α receptors in neuroblastoma. Bioorganic & medicinal chemistry letters. 2017; 27:1425-7; Kumar et al., Radiosynthesis and in Vivo Evaluation of [11C]MPC-6827, the First Brain Penetrant Microtubule PET Ligand. Journal of Medicinal Chemistry. 2018; 61:2118-23). The percentage of the injected dose per gram of tissue (% ID/g) was calculated.

Take `O=C1O/C(=C/CCl)C(O)=C1OCc1ccc(OCCF)cc1` [KS1, (E)-5-(2-chloroethylidene)-3-(4-(2-fluoroethoxy)benzyloxy)-4-hydroxyfuran-2(5H)-one]: the “selectivity (potency) versus ascorbate” value in series [1] fell in the range of 1.6 to 2.5 fold. Also, the “toxicity in normal organs” value in series [2] is on record as “did not observe any toxicity”.

Take `O=C1O/C(=C/CCl)C(O)=C1OCc1ccc(OCC[18F])cc1` [[^18F]KS1]: in series [3], the “target (tumor) to non-target (muscle) ratio” value is on record as 4.11. Besides, in series [4] (5 min post injection), the blood uptake worked out at 1.361±0.71, the kidney uptake amounted to 14.793±1.33 and the liver uptake is given as 9.72±2.55. Besides, in series [4] (120 min post injection), the blood uptake is reported as 0.31±0.071, the kidney uptake came to 3.23±1.30 and the liver uptake was found to be 2.124±1.12. In series [4] (normal ICR mice), the bone uptake entry was “No significant bone uptake” and the brain uptake result is “Poor brain uptake”. In series [5] (30 to 60 min post injection), the “increased tumor uptake from 30 min to 60 min” value is listed as around 1.7 fold. Further, the “tumor: muscle (target: non-target) ratio” value in series [5] (30 min) came out at 4.31. Further, in series [5] (30 min post injection), the bone uptake was determined as 1.741±0.71 % ID/g and the tumor uptake was 4.23±0.531 % ID/g. Moreover, the “tumor: muscle (target: non-target) ratio” value in series [5] (60 min) is listed as 8.84. In addition, in series [5] (60 min post injection), the bone uptake is reported as 1.381±0.561 % ID/g and the tumor uptake was found to be 6.81±0.33 % ID/g. In series [5] (from 30 min to 60 min), the “increase in the tumor: muscle ratio” value was above 50%.

Source of the values: US20240261443A1, “COMPOUNDS AND COMPOSITIONS USEFUL AS RADIOTRACERS FOR IMAGING OF REACTIVE OXIDATIVE SPECIES” (Wake Forest University Health Sciences, priority 2019, published 2024).
